According to US9957251B2 (Takeda Pharmaceutical Company Limited, priority 2014, dated 2018):

Experiments:
CDK19 (CDC2L6/CycC) = biological target: T1, CDK19 (CDC2L6/CycC) (Homo sapiens, UniProt Q9BWU1); test: CDK19 inhibitory activity (TR-FRET, Kinase Tracer-236 displacement); assay type: binding; settings: 1 μM of the test compound; read-out: Percent inhibition of CDK19 activity (%)
T1 construct: purchased Carna Biosciences
Description: (§1) The compound of the present invention was evaluated for its CDK8 inhibitory activity and CDK19 inhibitory activity by the following method. […] The primary diluted solution was dispensed in the amount of 2 μL/well to a 384-well plate, and then, a mixed solution of Eu^3+ Cryptate conjugated mouse monoclonal antibody anti-glutathione S-transferase (Cisbio) diluted 267-fold with an assay buffer and 60 nM Kinase Tracer-236 (Life technologies) was added thereto at 2 μL/well. After the addition, each kinase solution (84 ng/mL CDK8/CycC (Carna Biosciences) diluted with an assay buffer used for CDK8 inhibitory activity measurement, and 87 ng/mL CDC2L6/CycC (Carna Biosciences) diluted with an assay buffer used for CDK19 inhibitory activity measurement) was further added thereto at 2 μL/well. After the addition, the plate was left standing at room temperature for 1 hour, and then, the fluorescence intensity (excitation wavelength 320 nm, fluorescence wavelength 615 nm, 665 nm, delay time 50 μsec) was measured using an EnVision plate reader (PerkinElmer).

CDK8/CycC = biological target: T2, CDK8/CycC (Homo sapiens, UniProt P49336); test: CDK8 inhibitory activity (TR-FRET, Kinase Tracer-236 displacement); assay type: binding; settings: 1 μM of the test compound; read-out: Percent inhibition of CDK8 activity (%)
T2 construct: purchased Carna Biosciences
Description: as §1

[1] = system: human multiple myeloma RPMI8226 cells; test: Inhibitory activity against human multiple myeloma RPMI8226 cell growth (CellTiter-Glo); assay type: cell-based; settings: Homo sapiens, RPMI-8226, 192 h, 1 μM of the test compound, cultured for 8 days; read-out: Percent inhibition of RPMI8226 cell growth (%)
Description: The compound of the present invention was evaluated for its inhibitory activity against human multiple myeloma RPMI8226 cell growth by the following method.
A suspension of human multiple myeloma RPMI8226 cells (purchased from the Health Protection Agency) was inoculated at 40 μL (300 cells/well) to a 384-well plate and cultured at 37° C. for 1 day in a 5% CO2 incubator. After the culture, each test compound solution was added thereto at a test concentration of 1 μM using TECAN D300, and the cells were further cultured for 8 days. After the culture, CellTiter-Glo™ Luminescent Cell Viability Assay reagent (Promega) was added at 40 μL/well to a 384-well plate, and the amount of luminescence was measured using a luminometer. Inhibitory activity against human multiple myeloma RPMI8226 cell growth (percent inhibition (%)) of the test compound was calculated according to the following formula, which is based on the hypothesis that the amount of residual ATP reflects the number of cells. In this formula, 100% control represents the amount of luminescence from a well with only 0.1% DMSO added. Percent inhibition (%)=(1−(amount of luminescence of the test compound)÷(100% control))×100

T2 sequence (P49336 whole entry): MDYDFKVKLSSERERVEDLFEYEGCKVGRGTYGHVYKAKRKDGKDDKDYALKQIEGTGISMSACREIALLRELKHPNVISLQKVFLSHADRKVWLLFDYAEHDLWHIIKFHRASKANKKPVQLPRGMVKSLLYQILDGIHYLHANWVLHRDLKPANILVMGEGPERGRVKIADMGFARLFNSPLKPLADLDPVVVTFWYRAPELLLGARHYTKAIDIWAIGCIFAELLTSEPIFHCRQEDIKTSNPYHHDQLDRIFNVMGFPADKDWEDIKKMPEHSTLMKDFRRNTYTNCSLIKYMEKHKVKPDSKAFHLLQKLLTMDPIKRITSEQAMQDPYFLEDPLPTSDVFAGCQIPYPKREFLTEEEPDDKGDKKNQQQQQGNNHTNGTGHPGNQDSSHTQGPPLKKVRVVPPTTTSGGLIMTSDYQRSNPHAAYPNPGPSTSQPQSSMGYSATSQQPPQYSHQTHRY
T2 sequence (P24863 whole entry partner): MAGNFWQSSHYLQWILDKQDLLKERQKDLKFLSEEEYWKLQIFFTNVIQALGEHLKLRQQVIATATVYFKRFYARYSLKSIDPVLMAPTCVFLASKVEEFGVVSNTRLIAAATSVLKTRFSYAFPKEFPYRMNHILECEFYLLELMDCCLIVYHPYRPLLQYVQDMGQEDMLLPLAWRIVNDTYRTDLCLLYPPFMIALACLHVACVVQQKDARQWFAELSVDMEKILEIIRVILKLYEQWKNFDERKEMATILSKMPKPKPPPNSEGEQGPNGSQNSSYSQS
T1 sequence (Q9BWU1 whole entry): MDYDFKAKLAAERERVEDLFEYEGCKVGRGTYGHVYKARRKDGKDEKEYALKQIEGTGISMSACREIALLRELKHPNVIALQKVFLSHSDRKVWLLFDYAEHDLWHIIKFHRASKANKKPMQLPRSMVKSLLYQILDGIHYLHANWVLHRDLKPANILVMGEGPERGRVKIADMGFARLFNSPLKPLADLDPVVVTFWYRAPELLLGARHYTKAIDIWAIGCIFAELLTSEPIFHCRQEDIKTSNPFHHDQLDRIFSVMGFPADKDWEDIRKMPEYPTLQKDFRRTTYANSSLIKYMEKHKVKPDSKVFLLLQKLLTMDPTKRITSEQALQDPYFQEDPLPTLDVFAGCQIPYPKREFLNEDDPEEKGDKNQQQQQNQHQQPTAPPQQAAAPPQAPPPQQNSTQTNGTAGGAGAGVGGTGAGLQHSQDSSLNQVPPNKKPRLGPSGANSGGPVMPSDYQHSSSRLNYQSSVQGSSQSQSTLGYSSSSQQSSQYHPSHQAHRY
T1 sequence (P24863 whole entry partner): as the sequence (P24863 whole entry partner) above

SMILES | inhibition at 1 µM (CDK19 (CDC2L6/CycC)) [%] | inhibition at 1 µM (CDK8/CycC) [%] | inhibition at 1 µM [1] [%]
Cn1cc(-c2ccncc2/C=C/C(=O)Nc2ccc(CCN3CCOCC3)cc2)cn1 [Example 91, (2E)-3-(4-(1-Methyl-1H-pyrazol-4-yl)pyridin-3-yl)-N-(4-(2-(morpholin-4-yl)ethyl)phenyl)acrylamide] | 101 | 96 | 59
CCn1cc(-c2ccncc2/C=C/C(=O)Nc2ccc(CN3CCOCC3)cc2)cn1 [Example 92, (2E)-3-(4-(1-Ethyl-1H-pyrazol-4-yl)pyridin-3-yl)-N-(4-(morpholin-4-ylmethyl)phenyl)acrylamide] | 100 | 96 | 63
O=C(/C=C/c1cnccc1-c1cnn(Cc2ccccc2)c1)Nc1ccc(CN2CCOCC2)cc1 [Example 93, (2E)-3-(4-(1-benzyl-1H-pyrazol-4-yl)pyridin-3-yl)-N-(4-(morpholin-4-ylmethyl)phenyl)acrylamide] | 101 | 101 | 63
O=C(/C=C/c1cnccc1-c1cnn(C(F)F)c1)Nc1ccc(CN2CCOCC2)cc1 [Example 98, (2E)-3-(4-(1-(Difluoromethyl)-1H-pyrazol-4-yl)pyridin-3-yl)-N-(4-(morpholin-4-ylmethyl)phenyl)acrylamide] | 100 | 98 | 53
CCn1cc(-c2ccncc2CCC(=O)Nc2ccc(CN3CCOCC3)cc2)cn1 [Example 99, 3-(4-(1-Ethyl-1H-pyrazol-4-yl)pyridin-3-yl)-N-(4-(morpholin-4-ylmethyl)phenyl)propanamide] | 85 | 90 | 62
COc1ccsc1-c1ccncc1/C=C/C(=O)Nc1ccc(CN2CCOCC2)cc1 [Example 100, (2E)-3-(4-(3-methoxy-2-thienyl)pyridin-3-yl)-N-(4-(morpholin-4-ylmethyl)phenyl)acrylamide] | 100 | 97 | 52
O=C(/C=C/c1cnccc1-c1cnn2ccccc12)Nc1ccc(CN2CCOCC2)cc1 [Example 101, (2E)-N-(4-(morpholin-4-ylmethyl)phenyl)-3-(4-(pyrazolo[1,5-a]pyridin-3-yl)pyridin-3-yl)acrylamide] | 97 | 98 | 55
O=C(/C=C/c1cnccc1-c1cnn(CC2CC2)c1)Nc1ccc(CCN2CCOCC2)cc1 [Example 108, (2E)-3-(4-(1-(cyclopropylmethyl)-1H-pyrazol-4-yl)pyridin-3-yl)-N-(4-(2-(morpholin-4-yl)ethyl)phenyl)acrylamide] | 97 | 94 | 58
Cc1cc(NC(=O)/C=C/c2cnccc2-c2cnn(C)c2)ccc1CN1CCOCC1 [Example 109, (2E)-N-(3-Methyl-4-(morpholin-4-ylmethyl)phenyl)-3-(4-(1-methyl-1H-pyrazol-4-yl)pyridin-3-yl)acrylamide] | 98 | 96 | 58
Cn1cc(-c2ccncc2/C=C/C(=O)Nc2ccc3c(c2)OCC3)cn1 [Example 116, (2E)-N-(2,3-dihydro-1-benzofuran-6-yl)-3-(4-(1-methyl-1H-pyrazol-4-yl)pyridin-3-yl)acrylamide] | 94 | 100 | 55
Cn1cc(-c2ccncc2/C=C/C(=O)Nc2ccc(CC(C)(C)O)cc2)cn1 [Example 123, (2E)-N-(4-(2-hydroxy-2-methylpropyl)phenyl)-3-(4-(1-methyl-1H-pyrazol-4-yl)pyridin-3-yl)acrylamide] | 101 | 99 | 62
Cn1cc(-c2ccncc2/C=C/C(=O)Nc2ccc(CCC(F)(F)F)cc2)cn1 [Example 124, (2E)-3-(4-(1-methyl-1H-pyrazol-4-yl)pyridin-3-yl)-N-(4-(3,3,3-trifluoropropyl)phenyl)acrylamide] | 99 | 98 | 53
Cn1cc(-c2ccncc2/C=C/C(=O)Nc2ccc(Oc3ccncc3)cc2)cn1 [Example 137, (2E)-3-(4-(1-methyl-1H-pyrazol-4-yl)pyridin-3-yl)-N-(4-(pyridin-4-yloxy)phenyl)acrylamide] | 96 | 95 | 54
Cc1cc(NC(=O)/C=C/c2cnccc2-c2cnn(C3CC3)c2)ccc1CN1CCOCC1 [Example 142, (2E)-3-(4-(1-cyclopropyl-1H-pyrazol-4-yl)pyridin-3-yl)-N-(3-methyl-4-(morpholin-4-ylmethyl)phenyl)acryalmide] | 99 | 98 | 62
CC(C)(O)Cc1ccc(NC(=O)/C=C/c2cnccc2-c2cnn(C3CC3)c2)cc1 [Example 143, (2E)-3-(4-(1-cyclopropyl-1H-pyrazol-4-yl)pyridin-3-yl)-N-(4-(2-hydroxy-2-methylpropyl)phenyl)acrylamide] | 103 | 100 | 61
O=C(/C=C/c1cnccc1-c1cnsc1)Nc1ccc(CN2CCOCC2)cc1 [Example 145, (2E)-N-(4-(Morpholin-4-ylmethyl)phenyl)-3-(4-(1,2-thiazol-4-yl)pyridin-3-yl)acrylamide] | 94 | 90 | 51
Cn1cc(-c2ccncc2/C=C/C(=O)Nc2ccc(CN3CCOCC3)c(O)c2)cn1 [Example 148, (2E)-N-(3-Hydroxy-4-(morpholin-4-ylmethyl)phenyl)-3-(4-(1-methyl-1H-pyrazol-4-yl)pyridin-3-yl)acrylamide] | 99 | 97 | 54
Cn1cc(-c2ccncc2/C=C/C(=O)Nc2ccc(CN3CCOCC3)c(C#N)c2)cn1 [Example 150, (2E)-N-(3-Cyano-4-(morpholin-4-ylmethyl)phenyl)-3-(4-(1-methyl-1H-pyrazol-4-yl)pyridin-3-yl)acrylamide] | 99 | 100 | 54
Cc1ncc(-c2ccncc2/C=C/C(=O)Nc2ccc(CN3CCOCC3)cc2)s1 [Example 151, (2E)-3-(4-(2-methyl-1,3-thiazol-5-yl)pyridin-3-yl)-N-(4-(morpholin-4-ylmethyl)phenyl)acrylamide] | 95 | 95 | 54
Cn1cc(-c2ccncc2/C=C/C(=O)Nc2ccc3cnccc3c2)cn1 [Example 154, (2E)-N-(isoquinolin-6-yl)-3-(4-(1-methyl-1H-pyrazol-4-yl)pyridin-3-yl)acrylamide] | 99 | 96 | 62
Cn1cc(-c2ccncc2/C=C/C(=O)Nc2ccc3cc[nH]c3c2)cn1 [Example 155, (2E)-N-(1H-indol-6-yl)-3-(4-(1-methyl-1H-pyrazol-4-yl)pyridin-3-yl)acrylamide] | 93 | 98 | 54
Cn1cc(-c2ccncc2/C=C/C(=O)Nc2ccc3ccncc3c2)cn1 [Example 156, (2E)-N-(isoquinolin-7-yl)-3-(4-(1-methyl-1H-pyrazol-4-yl)pyridin-3-yl)acrylamide] | 94 | 94 | 55
Cn1cc(-c2ccncc2/C=C/C(=O)Nc2ccc(N3CCOCC3)c(Cl)c2)cn1 [Example 159, (2E)-N-(3-chloro-4-(morpholin-4-yl)phenyl)-3-(4-(1-methyl-1H-pyrazol-4-yl)pyridin-3-yl)acrylamide] | 100 | 102 | 60
Cn1cc(-c2ccncc2/C=C/C(=O)Nc2ccc3c(c2)OCO3)cn1 [Example 163, (2E)-N-(1,3-benzodioxol-5-yl)-3-(4-(1-methyl-1H-pyrazole-4-yl)pyridin-3-yl)acrylamide] | 94 | 96 | 53
Cn1cc(-c2ccncc2/C=C/C(=O)Nc2ccc3c(c2)OCCO3)cn1 [Example 168, (2E)-N-(2,3-dihydro-1,4-benzodioxin-6-yl)-3-(4-(1-methyl-1H-pyrazol-4-yl)pyridin-3-yl)acrylamide] | 97 | 100 | 59
